The NIST ThermoML archive (doi:10.1016/j.fluid.2010.10.009)
Numbers after ± are expanded uncertainties.

Tests used:
[1] = 303.15 K; 101.33 kPa; Liquid; Concentric cylinders viscometry
[2] = xn = mol fraction of the nth substance listed; settings: 101 kPa, Liquid, Concentric cylinders viscometry

CC(C)(C)O [2-methylpropan-2-ol]
Settings	viscosity [mPa·s]
[1]	3.387 ± 0.016

CC(C)(C)O [2-methylpropan-2-ol] + CCCCCCC
viscosity [mPa·s], [2]
Settings	303.15 K	308.15 K	313.15 K	318.15 K	323.15 K
x1 = 0.103	0.3899 ± 0.0076	0.3703 ± 0.0076	0.353 ± 0.0076	0.3329 ± 0.0075	0.3144 ± 0.0075
x1 = 0.2002	0.4118 ± 0.0077	0.3885 ± 0.0076	0.367 ± 0.0076	0.3441 ± 0.0075	0.3201 ± 0.0075
x1 = 0.3006	0.4501 ± 0.0078	0.4228 ± 0.0077	0.3983 ± 0.0077	0.3737 ± 0.0076	0.3489 ± 0.0076
x1 = 0.3999	0.4922 ± 0.0078	0.463 ± 0.0078	0.433 ± 0.0077	0.4062 ± 0.0077	0.3805 ± 0.0076
x1 = 0.5001	0.558 ± 0.008	0.5194 ± 0.0079	0.4838 ± 0.0078	0.4507 ± 0.0077	0.419 ± 0.0077
x1 = 0.6001	0.6624 ± 0.0082	0.6063 ± 0.0081	0.5587 ± 0.008	0.5157 ± 0.0079	0.4765 ± 0.0078
x1 = 0.6996	0.8071 ± 0.0086	0.7282 ± 0.0083	0.667 ± 0.0082	0.6022 ± 0.0081	0.5477 ± 0.0079
x1 = 0.8001	1.1 ± 0.0094	0.9711 ± 0.0089	0.8581 ± 0.0086	0.7681 ± 0.0084	0.6836 ± 0.0082
x1 = 0.9	1.699 ± 0.011	1.426 ± 0.01	1.214 ± 0.0096	1.044 ± 0.0091	0.9079 ± 0.0087
x1 = 0.95	2.263 ± 0.013	1.86 ± 0.012	1.541 ± 0.011	1.293 ± 0.0098	1.096 ± 0.0093
x1 = 1	3.387 ± 0.016	2.63 ± 0.014	2.097 ± 0.012	1.707 ± 0.011	1.415 ± 0.01

CC(C)(C)O [2-methylpropan-2-ol] + CCCCCCCC
viscosity [mPa·s], [2]
Settings	303.15 K	308.15 K	313.15 K	318.15 K	323.15 K
x1 = 0.1002	0.5022 ± 0.0081	0.4758 ± 0.008	0.4509 ± 0.008	0.4272 ± 0.0079	0.4044 ± 0.0078
x1 = 0.2002	0.5263 ± 0.0082	0.4972 ± 0.0081	0.47 ± 0.008	0.4443 ± 0.0079	0.4198 ± 0.0078
x1 = 0.2996	0.558 ± 0.0082	0.525 ± 0.0081	0.4943 ± 0.008	0.4656 ± 0.0079	0.4377 ± 0.0079
x1 = 0.4003	0.6031 ± 0.0083	0.5644 ± 0.0082	0.5287 ± 0.0081	0.4956 ± 0.008	0.4646 ± 0.0079
x1 = 0.5006	0.6658 ± 0.0084	0.6186 ± 0.0083	0.5757 ± 0.0081	0.5363 ± 0.008	0.5 ± 0.008
x1 = 0.5998	0.7587 ± 0.0086	0.6975 ± 0.0084	0.6429 ± 0.0083	0.5938 ± 0.0081	0.549 ± 0.008
x1 = 0.7	0.912 ± 0.0089	0.8243 ± 0.0087	0.7485 ± 0.0085	0.6822 ± 0.0083	0.6233 ± 0.0082
x1 = 0.799	1.187 ± 0.0096	1.044 ± 0.0092	0.9254 ± 0.0089	0.8261 ± 0.0086	0.7415 ± 0.0084
x1 = 0.8499	1.438 ± 0.01	1.236 ± 0.0097	1.075 ± 0.0093	0.9428 ± 0.0089	0.833 ± 0.0086
x1 = 0.9	1.781 ± 0.011	1.496 ± 0.01	1.275 ± 0.0098	1.099 ± 0.0093	0.958 ± 0.0089
x1 = 0.9235	2.015 ± 0.012	1.669 ± 0.011	1.404 ± 0.01	1.198 ± 0.0096	1.034 ± 0.0091
x1 = 0.9499	2.353 ± 0.014	1.913 ± 0.012	1.584 ± 0.011	1.333 ± 0.01	1.136 ± 0.0094
x1 = 1	3.387 ± 0.016	2.63 ± 0.014	2.097 ± 0.012	1.707 ± 0.011	1.415 ± 0.01

CC(C)(C)O [2-methylpropan-2-ol] + CCCCCCCCC
[2], x1 = 1
Settings	viscosity [mPa·s]
303.15 K	3.387 ± 0.016
308.15 K	2.63 ± 0.014
313.15 K	2.097 ± 0.012
318.15 K	1.707 ± 0.011
323.15 K	1.415 ± 0.01

CC(C)(C)O [2-methylpropan-2-ol] + CCCCCCCCCC
[2], x1 = 1
Settings	viscosity [mPa·s]
303.15 K	3.387 ± 0.016
308.15 K	2.63 ± 0.014
313.15 K	2.097 ± 0.012
318.15 K	1.707 ± 0.011
323.15 K	1.415 ± 0.01

CCCCCCCCCC [decane]
Settings	viscosity [mPa·s]
[1]	0.7838 ± 0.0092

CCCCCCCCCC [decane] + CC(C)(C)O
viscosity [mPa·s], [2]
Settings	303.15 K	308.15 K	313.15 K	318.15 K	323.15 K
x2 = 0	0.7838 ± 0.0092	0.7337 ± 0.009	0.6883 ± 0.0088	0.6466 ± 0.0087	0.6085 ± 0.0085
x2 = 0.1003	0.7786 ± 0.0091	0.7263 ± 0.0089	0.6791 ± 0.0087	0.6362 ± 0.0086	0.597 ± 0.0084
x2 = 0.2001	0.7925 ± 0.009	0.7382 ± 0.0088	0.6879 ± 0.0087	0.6422 ± 0.0085	0.6002 ± 0.0084
x2 = 0.3	0.825 ± 0.009	0.7653 ± 0.0088	0.7104 ± 0.0086	0.6604 ± 0.0085	0.6153 ± 0.0084
x2 = 0.3997	0.8622 ± 0.009	0.7934 ± 0.0088	0.7326 ± 0.0086	0.6775 ± 0.0085	0.627 ± 0.0083
x2 = 0.5	0.9148 ± 0.0091	0.8404 ± 0.0089	0.7726 ± 0.0087	0.7125 ± 0.0085	0.6566 ± 0.0084
x2 = 0.5999	0.9861 ± 0.0092	0.8974 ± 0.009	0.8188 ± 0.0087	0.7493 ± 0.0085	0.6869 ± 0.0084
x2 = 0.6997	1.129 ± 0.0096	1.01 ± 0.0092	0.9091 ± 0.0089	0.8219 ± 0.0087	0.7459 ± 0.0085
x2 = 0.8001	1.372 ± 0.01	1.199 ± 0.0096	1.058 ± 0.0092	0.9404 ± 0.0089	0.8399 ± 0.0086
x2 = 0.8999	1.937 ± 0.012	1.621 ± 0.011	1.376 ± 0.01	1.182 ± 0.0095	1.024 ± 0.0091
x2 = 0.9499	2.366 ± 0.014	1.948 ± 0.012	1.614 ± 0.011	1.357 ± 0.01	1.155 ± 0.0094

CCCCCCC [heptane]
Settings	viscosity [mPa·s]
[1]	0.3773 ± 0.0076

CCCCCCC [heptane] + CC(C)(C)O
[2], x2 = 0
Settings	viscosity [mPa·s]
303.15 K	0.3773 ± 0.0076
308.15 K	0.3603 ± 0.0076
313.15 K	0.3432 ± 0.0076
318.15 K	0.3269 ± 0.0075
323.15 K	0.3106 ± 0.0075

CCCCCCCCC [nonane]
Settings	viscosity [mPa·s]
[1]	0.6323 ± 0.0086

CCCCCCCCC [nonane] + CC(C)(C)O
viscosity [mPa·s], [2]
Settings	303.15 K	308.15 K	313.15 K	318.15 K	323.15 K
x2 = 0	0.6323 ± 0.0086	0.5974 ± 0.0085	0.5652 ± 0.0084	0.5352 ± 0.0083	0.5073 ± 0.0082
x2 = 0.1012	0.6377 ± 0.0086	0.5996 ± 0.0084	0.5644 ± 0.0083	0.532 ± 0.0082	0.502 ± 0.0081
x2 = 0.2008	0.6593 ± 0.0086	0.6177 ± 0.0084	0.5795 ± 0.0083	0.5442 ± 0.0082	0.5114 ± 0.0081
x2 = 0.3	0.6872 ± 0.0086	0.6414 ± 0.0084	0.5995 ± 0.0083	0.5608 ± 0.0082	0.5247 ± 0.0081
x2 = 0.3999	0.7276 ± 0.0086	0.676 ± 0.0085	0.6289 ± 0.0083	0.5857 ± 0.0082	0.5459 ± 0.0081
x2 = 0.4995	0.7904 ± 0.0087	0.7297 ± 0.0086	0.6749 ± 0.0084	0.6251 ± 0.0083	0.5795 ± 0.0082
x2 = 0.5998	0.8796 ± 0.0089	0.8038 ± 0.0087	0.7366 ± 0.0085	0.6766 ± 0.0084	0.6227 ± 0.0082
x2 = 0.6991	1.027 ± 0.0093	0.923 ± 0.0089	0.8336 ± 0.0087	0.7558 ± 0.0085	0.6874 ± 0.0083
x2 = 0.7997	1.297 ± 0.01	1.136 ± 0.0095	1.003 ± 0.0091	0.8918 ± 0.0088	0.7976 ± 0.0085
x2 = 0.9	1.856 ± 0.012	1.556 ± 0.011	1.323 ± 0.0099	1.137 ± 0.0094	0.9883 ± 0.009
x2 = 0.9494	2.392 ± 0.014	1.944 ± 0.012	1.608 ± 0.011	1.351 ± 0.01	1.151 ± 0.0094

CCCCCCCC [octane]
Settings	viscosity [mPa·s]
[1]	0.4918 ± 0.0081

CCCCCCCC [octane] + CC(C)(C)O
[2], x2 = 0
Settings	viscosity [mPa·s]
303.15 K	0.4918 ± 0.0081
308.15 K	0.4684 ± 0.0081
313.15 K	0.447 ± 0.008
318.15 K	0.425 ± 0.0079
323.15 K	0.4049 ± 0.0079
